From patent US10227331B2 (priority 2015, dated 2019)

Tests used:
[1] = tested on: P. aeruginosa expressing IMP-1, efflux+ (MB9798); assay type: cell-based, Pseudomonas aeruginosa; conditions: for P. aeruginosa expressing IMP-1, efflux+ (MB9798) MITC95: imipenem at 2 μg/mL, in the presence of a class A, C, D serine β-lactamase inhibitor closely related to relebactam; for Efflux ratio: ratio MITC95 PA_9798/MITC95 PA_9799
Text: (§1) The strain background is Pseudomonas aeruginosa PAO1.

VIM-1 = VIM-1 (Pseudomonas aeruginosa (strain ATCC 15692 / DSM 22644 / CIP 104116 / JCM 14847 / LMG 12228 / 1C / PRS 101 / PAO1), UniProt A0A0F7KYQ8); test: biochemical; conditions: CCF2-FA substrate, 2 hours at 25° C
How it was run: (§2)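 Class B activity is measured in the presence of compound by fluorescence with CCF2-FA after a 2-hour incubation at 25° C. IC50 is taken from a 4-parameter fit of semi-logarithmic dose-response data.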

NDM-1 = NDM-1 (Klebsiella pneumoniae, UniProt C7C422); test: biochemical; assay type: biochemical; conditions: CCF2-FA substrate, 2 hours at 25° C; read-out: NDM-1 IC50
Chain of NDM-1 (C7C422 whole entry, looked up, species assumed): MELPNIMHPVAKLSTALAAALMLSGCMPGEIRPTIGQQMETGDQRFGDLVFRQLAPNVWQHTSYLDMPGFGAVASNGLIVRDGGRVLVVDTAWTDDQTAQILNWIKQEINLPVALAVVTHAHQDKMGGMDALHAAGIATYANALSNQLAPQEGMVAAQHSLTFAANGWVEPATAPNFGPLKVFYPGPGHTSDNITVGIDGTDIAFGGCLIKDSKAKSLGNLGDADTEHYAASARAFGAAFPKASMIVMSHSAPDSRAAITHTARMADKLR
How it was run: as §2

IMP-1 = IMP-1 (Serratia marcescens, UniProt P52699); test: biochemical; assay type: biochemical; conditions: CCF2-FA substrate, 2 hours at 25° C; read-out: IMP-1 IC50
Chain of IMP-1 (P52699 whole entry, looked up, species assumed): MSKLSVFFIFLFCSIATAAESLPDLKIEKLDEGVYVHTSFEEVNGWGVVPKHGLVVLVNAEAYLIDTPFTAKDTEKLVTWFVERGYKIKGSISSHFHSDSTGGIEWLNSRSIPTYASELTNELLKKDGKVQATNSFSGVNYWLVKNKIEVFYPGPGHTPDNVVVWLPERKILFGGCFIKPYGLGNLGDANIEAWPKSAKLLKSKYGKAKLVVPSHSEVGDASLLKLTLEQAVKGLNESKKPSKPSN
How it was run: as §2

[2] = tested on: P. aeruginosa expressing IMP-1, efflux− (MB9799); test: Efflux: concentration of MBL inhibitor which restores susceptibility to imipenem; assay type: cell-based, Pseudomonas aeruginosa; conditions: imipenem at 2 μg/mL, in the presence of a class A, C, D serine β-lactamase inhibitor closely related to relebactam
Text: as §1

[3] = tested on: Escherichia coli expressing NDM-1 (CLB30005, CLB30016); assay type: cell-based; conditions: NDM-1 (CLB30016), with imipenem 1 μg/ml, 95% inhibition of bacterial growth
How it was run: (§3)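 Clinical strains grown overnight on blood agar, then diluted 1:100 in 1.1× CAMHB and exposed to test compound with imipenem at 1 μg/ml. Incubation was 22–24 h at 35° C; growth was read by absorbance to find the compound concentration restoring imipenem susceptibility.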

[4] = tested on: Serratia marcescens expressing IMP-1 (CL5741); assay type: cell-based; conditions: IMP-1 (CL5741), with imipenem 1 μg/ml, 95% inhibition of bacterial growth
How it was run: as §3

[5] = tested on: Klebsiella pneumoniae expressing VIM-1 (IHMA599644); assay type: cell-based; conditions: VIM-1 (IHMA599644), with imipenem 1 μg/ml, 95% inhibition of bacterial growth
How it was run: as §3

With `NCc1nc2c(-c3ccc(S(=O)(=O)C[C@@H](O)CN)c(S(N)(=O)=O)c3-c3nn[nH]n3)cccc2[nH]1` [Example 369, (S)-6-((3-amino-2-hydroxypropyl)sulfonyl)-3-(2-(aminomethyl)-1H-benzo[d]imidazol-4-yl)-2-(2H-tetrazol-5-yl) benzenesulfonamide] the “P. aeruginosa expressing IMP-1, efflux+ (MB9798) MITC95” value [1] was 0.7813 µM, the Efflux ratio [1] was 1.00 and the IC50 (VIM-1) was 0.401 nM. For the same compound, the IC50 (NDM-1) was 0.973 nM, the IC50 (IMP-1) was 3.57 nM and the “P. aeruginosa expressing IMP-1, efflux− (MB9799) MITC95” value [2] was 0.7813 µM. The “Escherichia coli MITC95” value [3] was 0.7813 µM, the “Serratia marcescens MITC95” value [4] was 0.7813 µM and the “Klebsiella pneumoniae MITC95” value [5] was 1.563 µM.

With `NCc1nc2c(-c3ccc(S(=O)(=O)C[C@H](O)CN)c(S(N)(=O)=O)c3-c3nn[nH]n3)cccc2[nH]1` [Example 370, (R)-6-((3-amino-2-hydroxypropyl)sulfonyl)-3-(2-(aminomethyl)-1H-benzo[d]imidazol-4-yl)-2-(2H-tetrazol-5-yl) benzenesulfonamide] the “P. aeruginosa expressing IMP-1, efflux+ (MB9798) MITC95” value [1] was 0.7813 µM, the Efflux ratio [1] was 1.00 and the IC50 (VIM-1) was 0.393 nM. For the same compound, the IC50 (NDM-1) was 0.361 nM, the IC50 (IMP-1) was 1.25 nM and the “P. aeruginosa expressing IMP-1, efflux− (MB9799) MITC95” value [2] was 0.7813 µM. For the same compound, the “Escherichia coli MITC95” value [3] was 0.7813 µM, the “Serratia marcescens MITC95” value [4] was 0.7813 µM and the “Klebsiella pneumoniae MITC95” value [5] was 1.563 µM.

`NC[C@@H](N)CS(=O)(=O)c1ccc(-c2ccc(N)nc2)c(-c2nn[nH]n2)c1S(N)(=O)=O` [Example 371, (R)-3-(6-aminopyridin-3-yl)-6-((2,3-diaminopropyl)sulfonyl)-2-(2H-tetrazol-5-yl) benzenesulfonamide] was tested, and the “P. aeruginosa expressing IMP-1, efflux+ (MB9798) MITC95” value [1] was 3.125 µM, the Efflux ratio [1] was 2.00 and the IC50 (VIM-1) was 1.08 nM. For the same compound, the IC50 (NDM-1) was 1.16 nM, the IC50 (IMP-1) was 1.38 nM and the “P. aeruginosa expressing IMP-1, efflux− (MB9799) MITC95” value [2] was 1.563 µM. For the same compound, the “Escherichia coli MITC95” value [3] was 1.563 µM, the “Serratia marcescens MITC95” value [4] was 1.563 µM and the “Klebsiella pneumoniae MITC95” value [5] was 3.125 µM.

For `NC[C@H](N)CS(=O)(=O)c1ccc(-c2ccc(N)nc2)c(-c2nn[nH]n2)c1S(N)(=O)=O` [Example 372, (S)-3-(6-aminopyridin-3-yl)-6-((2,3-diaminopropyl)sulfonyl)-2-(2H-tetrazol-5-yl) benzenesulfonamide], the “P. aeruginosa expressing IMP-1, efflux+ (MB9798) MITC95” value [1] was 3.125 µM, the Efflux ratio [1] was 2.00 and the IC50 (VIM-1) was 0.992 nM. For the same compound, the IC50 (NDM-1) was 1.17 nM, the IC50 (IMP-1) was 1.43 nM and the “P. aeruginosa expressing IMP-1, efflux− (MB9799) MITC95” value [2] was 1.563 µM. For the same compound, the “Escherichia coli MITC95” value [3] was 0.7813 µM, the “Serratia marcescens MITC95” value [4] was 1.563 µM and the “Klebsiella pneumoniae MITC95” value [5] was 3.125 µM.

For `Nc1nc2c(-c3ccc(S(=O)(=O)C4CNC4)c(S(N)(=O)=O)c3-c3nn[nH]n3)cccc2n1CCO` [Example 373, 3-(2-Amino-1-(2-hydroxyethyl)-1H-benzo[d]imidazol-4-yl)-6-(azetidin-3-ylsulfonyl)-2-(2H-tetrazol-5-yl)benzenesulfonamide], the “P. aeruginosa expressing IMP-1, efflux+ (MB9798) MITC95” value [1] was 1.563 µM, the Efflux ratio [1] was 1.00 and the IC50 (VIM-1) was 0.248 nM. For the same compound, the IC50 (NDM-1) was 0.139 nM, the IC50 (IMP-1) was 0.409 nM and the “P. aeruginosa expressing IMP-1, efflux− (MB9799) MITC95” value [2] was 1.563 µM. For the same compound, the “Escherichia coli MITC95” value [3] was 0.7813 µM, the “Serratia marcescens MITC95” value [4] was 1.563 µM and the “Klebsiella pneumoniae MITC95” value [5] was 3.125 µM.

For `Nc1c(NCCO)cccc1-c1ccc(S(=O)(=O)C2CNC2)c(S(N)(=O)=O)c1-c1nn[nH]n1` [Example 374, 2′-Amino-4-(azetidin-3-ylsulfonyl)-3′-((2-hydroxyethyl)amino)-2-(2H-tetrazol-5-yl)-[1,1′-biphenyl]-3-sulfonamide], the “P. aeruginosa expressing IMP-1, efflux+ (MB9798) MITC95” value [1] was 6.25 µM, the Efflux ratio [1] was 2.00 and the IC50 (VIM-1) was 2.57 nM. For the same compound, the IC50 (NDM-1) was 1.42 nM, the IC50 (IMP-1) was 2.71 nM and the “P. aeruginosa expressing IMP-1, efflux− (MB9799) MITC95” value [2] was 3.125 µM. The “Escherichia coli MITC95” value [3] was 3.125 µM, the “Serratia marcescens MITC95” value [4] was 3.125 µM and the “Klebsiella pneumoniae MITC95” value [5] was 6.25 µM.

`NCCCNC(=O)c1cccc(-c2ccc(S(=O)(=O)CCN)c(S(N)(=O)=O)c2-c2nn[nH]n2)c1N` [Example 375, 2-Amino-4′-((2-aminoethyl)sulfonyl)-N-(3-aminopropyl)-3′-sulfamoyl-2′-(2H-tetrazol-5-yl)-[1,1′-biphenyl]-3-carboxamide] was tested, and the “P. aeruginosa expressing IMP-1, efflux+ (MB9798) MITC95” value [1] was 1.563 µM, the Efflux ratio [1] was 2.00 and the IC50 (VIM-1) was 0.53 nM. The IC50 (NDM-1) was 2.11 nM, the IC50 (IMP-1) was 1.71 nM and the “P. aeruginosa expressing IMP-1, efflux− (MB9799) MITC95” value [2] was 0.7813 µM. The “Escherichia coli MITC95” value [3] was 1.563 µM, the “Serratia marcescens MITC95” value [4] was 1.563 µM and the “Klebsiella pneumoniae MITC95” value [5] was 1.563 µM.

In the case of `NCCS(=O)(=O)c1ccc(-c2cccc(C(=O)N[C@H]3CCNC3)c2N)c(-c2nn[nH]n2)c1S(N)(=O)=O` [Example 376, (S)-2-Amino-4′-((2-aminoethyl)sulfonyl)-N-(pyrrolidin-3-yl)-3′-sulfamoyl-2′-(2H-tetrazol-5-yl)-[1,1′-biphenyl]-3-carboxamide], the “P. aeruginosa expressing IMP-1, efflux+ (MB9798) MITC95” value [1] is reported as 3.125 µM, the Efflux ratio [1] is reported as 2.00 and the IC50 (VIM-1) is reported as 0.539 nM. The IC50 (NDM-1) was 2.92 nM, the IC50 (IMP-1) was 2.58 nM and the “P. aeruginosa expressing IMP-1, efflux− (MB9799) MITC95” value [2] was 1.563 µM. For the same compound, the “Escherichia coli MITC95” value [3] was 3.125 µM, the “Serratia marcescens MITC95” value [4] was 1.563 µM and the “Klebsiella pneumoniae MITC95” value [5] was 1.563 µM.

`NCCS(=O)(=O)c1ccc(-c2cccc(C(=O)N[C@@H]3CCNC3)c2N)c(-c2nn[nH]n2)c1S(N)(=O)=O` [Example 377, (R)-2-amino-4′-((2-aminoethyl)sulfonyl)-N-(pyrrolidin-3-yl)-3′-sulfamoyl-2′-(2H-tetrazol-5-yl)-[1,1′-biphenyl]-3-carboxamide] was tested, and the “P. aeruginosa expressing IMP-1, efflux+ (MB9798) MITC95” value [1] was 3.125 µM, the Efflux ratio [1] was 2.00 and the IC50 (VIM-1) was 0.671 nM. For the same compound, the IC50 (NDM-1) was 1.77 nM, the IC50 (IMP-1) was 1.88 nM and the “P. aeruginosa expressing IMP-1, efflux− (MB9799) MITC95” value [2] was 1.563 µM. For the same compound, the “Escherichia coli MITC95” value [3] was 1.563 µM, the “Serratia marcescens MITC95” value [4] was 1.563 µM and the “Klebsiella pneumoniae MITC95” value [5] was 3.125 µM.

With `NCCNC(=O)c1cccc(-c2ccc(S(=O)(=O)CCN)c(S(N)(=O)=O)c2-c2nn[nH]n2)c1N` [Example 378, 2-amino-N-(2-aminoethyl)-4′-((2-aminoethyl)sulfonyl)-3′-sulfamoyl-2′-(2H-tetrazol-5-yl)-[1,1′-biphenyl]-3-carboxamide] the “P. aeruginosa expressing IMP-1, efflux+ (MB9798) MITC95” value [1] was 1.563 µM, the Efflux ratio [1] was 2.00 and the IC50 (VIM-1) was 0.544 nM. For the same compound, the IC50 (NDM-1) was 3.72 nM, the IC50 (IMP-1) was 5.1 nM and the “P. aeruginosa expressing IMP-1, efflux− (MB9799) MITC95” value [2] was 0.7813 µM. The “Escherichia coli MITC95” value [3] was 0.7813 µM, the “Serratia marcescens MITC95” value [4] was 0.7813 µM and the “Klebsiella pneumoniae MITC95” value [5] was 1.563 µM.

`NC[C@@H](O)CS(=O)(=O)c1ccc(-c2cc(I)cc3[nH]c(N)nc23)c(-c2nn[nH]n2)c1S(N)(=O)=O` [Example 379, (R)-6-((3-amino-2-hydroxypropyl)sulfonyl)-3-(2-amino-6-iodo-1H-benzo[d]imidazol-4-yl)-2-(2H-tetrazol-5-yl)benzenesulfonamide] was tested, and the “P. aeruginosa expressing IMP-1, efflux+ (MB9798) MITC95” value [1] was 0.3906 µM, the Efflux ratio [1] was 0.50 and the IC50 (VIM-1) was 0.123 nM. The IC50 (NDM-1) was 0.0809 nM, the IC50 (IMP-1) was 0.17 nM and the “P. aeruginosa expressing IMP-1, efflux− (MB9799) MITC95” value [2] was 0.7813 µM. The “Escherichia coli MITC95” value [3] was 0.7813 µM, the “Serratia marcescens MITC95” value [4] was 0.7813 µM and the “Klebsiella pneumoniae MITC95” value [5] was 1.563 µM.

For `NCCS(=O)(=O)c1ccc(-c2cccc(NC(=O)[C@H](N)CO)c2)c(-c2nn[nH]n2)c1S(N)(=O)=O` [compound 334, (R)-2-amino-N-(4′-((2-aminoethyl)sulfonyl)-3′-sulfamoyl-2′-(2H-tetrazol-5-yl)-[1,1′-biphenyl]-3-yl)-3-hydroxypropanamide], the “P. aeruginosa expressing IMP-1, efflux+ (MB9798) MITC95” value [1] was 12.5 µM, the Efflux ratio [1] was 8.00 and the IC50 (VIM-1) was 0.504 nM. For the same compound, the IC50 (NDM-1) was 2.53 nM, the IC50 (IMP-1) was 4.54 nM and the “P. aeruginosa expressing IMP-1, efflux− (MB9799) MITC95” value [2] was 1.563 µM. For the same compound, the “Escherichia coli MITC95” value [3] was 1.563 µM, the “Serratia marcescens MITC95” value [4] was 3.125 µM and the “Klebsiella pneumoniae MITC95” value [5] was 3.125 µM.

With `NCCNC(=O)c1cc(-c2ccc(S(=O)(=O)CCN)c(S(N)(=O)=O)c2-c2nn[nH]n2)cnc1N` [compound 337, 2-amino-N-(2-aminoethyl)-5-(4-((2-aminoethyl)sulfonyl)-3-sulfamoyl-2-(2H-tetrazol-5-yl)phenyl)nicotinamide] the “P. aeruginosa expressing IMP-1, efflux+ (MB9798) MITC95” value [1] was 6.25 µM, the Efflux ratio [1] was 8.00 and the IC50 (VIM-1) was 4.38 nM. For the same compound, the IC50 (NDM-1) was 5.65 nM, the IC50 (IMP-1) was 12.3 nM and the “P. aeruginosa expressing IMP-1, efflux− (MB9799) MITC95” value [2] was 0.7813 µM. The “Escherichia coli MITC95” value [3] was 0.7813 µM, the “Serratia marcescens MITC95” value [4] was 1.563 µM and the “Klebsiella pneumoniae MITC95” value [5] was 1.563 µM.
